Source: patent US10858360B2, “Tricyclic gyrase inhibitors” (priority 2011, dated 2020)
Values after ≈ are worked out from the molar mass of the structure shown.

Tests used:
Type in all cases: cell-based
S. aureus ATCC 13709 = experiment: MIC, S. aureus ATCC 13709 (Alamar Blue broth microdilution); details: for MIC: Staphylococcus aureus; for MIC Sa: S. aureus
E. coli ATCC 25922 = experiment: MIC, E. coli ATCC 25922; details: for MIC: Escherichia coli; for MIC Ec: E. coli
S. pneumoniae ATCC 51916 = experiment: MIC, S. pneumoniae ATCC 51916; details: Streptococcus pneumoniae, ATCC51916; Spn = S. pneumoniae
P. aeruginosa ATCC 15692 = experiment: MIC, P. aeruginosa ATCC 15692; details: Pseudomonas aeruginosa, ATCC15692; Pa = P. aeruginosa
A. baumannii ATCC 19606 = experiment: MIC, A. baumannii ATCC 19606; details: Acinetobacter baumannii, ATCC19606; Ab = A. baumannii; strain not given
[1] = test system: K. pneumoniae ATCC 700603; experiment: MIC, K. pneumoniae ATCC 700603; details: Klebsiella pneumoniae, ATCC700603, read-out: MIC Kpn
[2] = ATCC13709, S. aureus, Alamar Blue read after overnight incubation at 35° C.
[3] = ATCC25922, E. coli, Alamar Blue read after overnight incubation at 35° C.
[4] = Alamar Blue read after overnight incubation at 35° C.

Row | Compound | MIC (S. aureus ATCC 13709; [2]) [µg/mL] | MIC (E. coli ATCC 25922; [3]) [µg/mL] | other results
1 | CNc1cc(F)cc2c1[nH]c1nc(Oc3cncc(-c4nnnn4C)c3)nc(N3CC[C@@H](N)C3)c12 [4.169] | 2 (≈ 4.21 µM) | 8 (≈ 16.8 µM) | 
2 | CNc1cc(F)cc2c1[nH]c1nc(Oc3cncc(C#N)c3)nc(N3CC(N)C4(CC4)C3)c12 (centres unmarked) [4.051] | ≤ 0.5 | 2 (≈ 4.5 µM) | 
3 | CNc1cccc2c1[nH]c1nc(Sc3ccc4ccc(C(=O)O)nc4c3)nc(N3CC4C(N)C4C3)c12 (centres unmarked) [1.74] | 4 (≈ 8.04 µM) | > 64 | 
4 | CNc1cc(F)cc2c1[nH]c1nc(Oc3cnc(N)nc3)nc(N3C[C@H]4CCN[C@H]4C3)c12 [4.187] | ≤ 0.5 | 2 (≈ 4.59 µM) | 
5 | CNc1cc(F)cc2c1[nH]c1nc(Oc3cnc(CN)nc3)nc(N3CC4CC(N)C4C3)c12 (centres unmarked) [4.394] |  |  | MIC Sa (S. aureus ATCC 13709; [4]): ≤0.5 µg/mL; MIC Ec (E. coli ATCC 25922; [4]): ≤0.5 µg/mL
6 | CNc1cc(F)cc2c1[nH]c1nc(Oc3cnc(C4CC4)nc3)nc(N3CC4CCNC3C4)c12 (centres unmarked) [4.248] | ≤ 0.5 | ≤ 0.5 | 
7 | CNc1cc(F)cc2c1[nH]c1nc(Oc3cnc(C(C)(C)C)nc3)nc(N3C[C@H](N)C4(CC4)C3)c12 [4.315] | ≤ 0.5 | ≤ 0.5 | 
8 | CNc1cc(F)cc2c1[nH]c1nc(Oc3cncc(-c4ccco4)c3)nc(N3CC4CC(N)C4C3)c12 (centres unmarked) [4.350] |  |  | MIC Sa (S. aureus ATCC 13709; [4]): ≤0.5 µg/mL; MIC Ec (E. coli ATCC 25922; [4]): 4 µg/mL (≈ 8.24 µM)
9 | CNc1cc(F)cc2c1[nH]c1nc(Oc3cnc(-c4nccn4C)nc3)nc(N3C[C@H](N)C4(CC4)C3)c12 [4.399] | ≤ 0.5 | 2 (≈ 4 µM) | 
10 | CNc1cc(F)cc2c1[nH]c1nc(Sc3cnc4cccnc4c3)nc(N3CC(N)C4(CC4)C3)c12 (centres unmarked) [1.62] | ≤ 0.5 | ≤ 0.5 | 
11 | CNc1cccc2c1[nH]c1nc(Oc3cnc4cccnc4c3)nc(N3CC4C(N)C4C3)c12 (centres unmarked) [3.34] | ≤ 0.5 | ≤ 0.5 | 
12 | CNc1cc(F)cc2c1[nH]c1nc(Oc3cnc(C)nc3)nc(N3CCC(C4(N)CC4)C3)c12 (centres unmarked) [4.083] |  |  | MIC Sa (S. aureus ATCC 13709; [4]): ≤0.5 µg/mL; MIC Ec (E. coli ATCC 25922; [4]): ≤0.5 µg/mL
13 | CNc1cc(F)cc2c1[nH]c1nc(Oc3cnc(C)nc3)nc(N3CC4CNCCC43)c12 (centres unmarked) [4.082] |  |  | MIC Sa (S. aureus ATCC 13709; [4]): 1 µg/mL (≈ 2.3 µM); MIC Ec (E. coli ATCC 25922; [4]): 8 µg/mL (≈ 18.4 µM)
14 | CNc1cccc2c1[nH]c1nc(Oc3cnc(C)nc3)nc(N3CC[C@@H](N)C3)c12 [3.5] | 0.25 (≈ 0.64 µM) | ≤ 0.5 | 
15 | CNc1cc(F)cc2c1[nH]c1nc(Sc3cnc4ccc[n+]([O-])c4c3)nc(N3CCC4(CC4N)C3)c12 (centres unmarked) [1.65] |  |  | MIC Sa (S. aureus ATCC 13709; [4]): ≤0.5 µg/mL; MIC Ec (E. coli ATCC 25922; [4]): ≤0.5 µg/mL
16 | CCc1ncc(Oc2nc(N3CCC4(CC4N)C3)c3c(n2)[nH]c2c(NC)cc(F)cc23)cn1 (centres unmarked) [4.263] | ≤ 0.5 | ≤ 0.5 | 
17 | CNc1cc(F)cc2c1[nH]c1nc(Oc3cnc(CO)nc3)nc(N3CC4C(N)CC4(C)C3)c12 (centres unmarked) [4.389] |  |  | MIC Sa (S. aureus ATCC 13709; [4]): ≤0.5 µg/mL; MIC Ec (E. coli ATCC 25922; [4]): ≤0.5 µg/mL
18 | CNc1cccc2c1[nH]c1nc(Sc3cncc(S(N)(=O)=O)c3)nc(N3CC4C(N)C4C3)c12 (centres unmarked) [1.41] | 4 (≈ 8.29 µM) | 8 (≈ 16.6 µM) | 
19 | CNc1cc(F)c(F)c2c1[nH]c1nc(Oc3cnc4c(c3)ncn4C3CC3)nc(N3C[C@H]4C[C@@H]3C[C@H]4N)c12 [5.15] | ≤ 0.5 | 1 (≈ 1.93 µM) | 
20 | CNc1cccc2c1[nH]c1nc(Sc3cnc4ccc[n+]([O-])c4c3)nc(N3CCC4(CC4N)C3)c12 (centres unmarked) [1.38] | ≤ 0.5 | 2 (≈ 4.13 µM) | 
21 | CNc1cccc2c1[nH]c1nc(Oc3cnc(N4CCOCC4)nc3)nc(N3CC4C(N)C4C3)c12 (centres unmarked) [3.26] | > 16 | > 16 | 
22 | CNc1cc(F)cc2c1[nH]c1nc(Oc3cnc(C)nc3)nc(N3C[C@@H]4[C@H](C3)[C@@]4(N)C(N)=O)c12 [4.160] | ≤ 0.5 | 2 (≈ 4.32 µM) | MIC (S. aureus ATCC 13709; ATCC13709, Sa = S. aureus): ≤ 0.5 µg/mL; MIC (S. pneumoniae ATCC 51916): ≤ 0.5 µg/mL; MIC (E. coli ATCC 25922; ATCC25922, Ec = E. coli, strain not given): 2 µg/mL (≈ 4.32 µM); MIC (P. aeruginosa ATCC 15692): > 16 µg/mL; MIC (A. baumannii ATCC 19606): > 16 µg/mL; MIC [1]: > 16 µg/mL
